Data taken from patent publication US6861524B2, “Acyl and sulfonyl derivatives of 6,9-disubstituted 2-(trans-1,4-diaminocyclohexyl)-purines and their use as antiproliferative agents” (Aventis Pharmaceuticals Inc., priority 2000, dated 2005).
Marks after values point to notes of the source that are not given here.

Tests used:
[1] = Red blood cell binding (RBC to plasma ratio), mouse whole blood; type: in vitro ADME; conditions: 30 minutes at 37° C., nominal 500 ng/ml, hematocrit 0.41
Procedure: (§1) Compounds, including one positive control, are assessed for red blood cell (RBC) uptake, using a modified procedure based on the protocol reported in Sun, J. X. S., et al. High-performance liquid chromatographic analysis, plasma protein binding and red blood cell partitioning of phenprobamate. Biopharmaceutics and Drug Disposition, 8 (1987) 341-351.
(§2) Briefly, RBC uptake is evaluated by comparison of the levels in spiked plasma (n=3) and plasma isolated from spiked whole blood (n=3). Compounds are incubated with human and mouse whole blood, respectively, for 30 minutes at 37° C. using a nominal concentration of 500 ng/ml. Following centrifugation, the plasma is removed and submitted for analysis. Each compound is also spiked into blank plasma at a nominal concentration of 500 ng/ml, and submitted for analysis. Levels in the two plasma samples (Cp′ and Cp in the equation below) and the blood hematocrit are used to determine the red blood cell to plasma ratio (Crbc/Cp). [formula] In equation 1, Cp′ is the level of drug in the spiked “blank” plasma, Cp is the level of drug in the plasma of spiked whole blood, and H is the hematocrit. The hematocrit values are determined as 0.4 for human whole blood and 0.41 for mouse whole blood. The samples are analyzed with ESI LC/MS, using positive ion detection with an internal standard.
(§3) The red blood cell to plasma ratio is determined for each compound using equation 1. Tables 6 and 7 summarize the respective mean Crbc/Cp values and standard deviations for mouse and human whole blood, respectively, in descending order based on the red blood cell to plasma ratio, where “*” denotes Positive Control, and “ND” denotes Not Determined. MDL 108552 is included as a positive control for red blood cell uptake.

[2] = Red blood cell binding (RBC to plasma ratio), human whole blood; type: in vitro ADME; conditions: 30 minutes at 37° C., nominal 500 ng/ml
Procedure: as §1, §2, §3

[3] = Plasma pharmacokinetics in mice after single intravenous cassette doses; conditions: for Mean concentration in plasma / concentration at 0.083 h / concentration at 0.25 h / concentration at 0.5 h / concentration at 1 h / concentration at 3 h / concentration at 6 h / concentration at 8 h / Mean Conc. in plasma: mice; for Mean concentration in plasma: single 18 mg/kg intravenous cassette dose (Cassette #1); for concentration at 0.083 h / concentration at 0.25 h / concentration at 0.5 h / concentration at 1 h / concentration at 3 h / concentration at 6 h / concentration at 8 h / AUC(0-inf) / Cmax / half-life: male, Hsd:ICR (CD-1), mouse, plasma, 3 mg/kg; for concentration at 0.083 h / concentration at 0.25 h / concentration at 0.5 h / concentration at 1 h / concentration at 3 h / concentration at 6 h / concentration at 8 h: intravenous, Mean Conc. in plasma; for AUC(0-inf) / Cmax / half-life: iv; for AUC(0-inf): AUC0-∞; for Cmax: Cmax (highest measured value); for half-life: t1/2, λz
Procedure: Male mice are given single intravenous cassette doses of CDK inhibitor compounds.
A single intravenous cassette dose (18 or 15 mg/kg free base) is administered. For each compound, this is equivalent to a dose of approx. 3 mg/kg free base. […] The dose is administered at a volume of 10 ml/kg (total volume of approximately 0.25 ml/animal).
Male mice (Hsd:ICR (CD-1® SD®), Harlan), each weighing approximately 20-30 g at the start of the study. […] Water is available ad libitum throughout the study.
A single cassette dose of 5-6 compounds is administered by bolus injection into the tail vein over a 10-15-second period. […] Whole blood (approximately 0.6 ml/sample) is obtained by cardiac puncture and transferred to 3 ml glass tubes containing 45 U sodium heparin.
Sample Processing: Plasma: Whole blood is centrifuged at approximately 3,200 rpm for 10 min at approximately 5° C. and the plasma (approx. 0.3 ml/sample) is transferred to chilled plastic vials and stored at approx. −70° C. until bioanalysis.
Sample Analysis: Concentrations of each test article in plasma are quantitated by a non-validated method based on LC/MS using the following protocol.
Samples are removed from the freezer, allowed to thaw at room temperature, and vortexed to insure complete homogenization prior to sample manipulation. Samples are then prepared according to the following scheme: • 1. transfer 48 μL of plasma (blank mouse sample) into a 12×75 mm test tube. • 2. add 12 μL of working standard to the blank plasma for standard curve preparation. • 3. […] Inject 25 μL on LC/MS. Chromatographic Conditions:
Data Analysis: Concentrations of Compounds in plasma of individual animals are determined by bioanalytics. […] Statistical analyses are limited to simple expressions of variation (mean and standard deviation). The plasma AUC (area-under-curve) is determined by the linear trapezoidal rule. […] All PK parameters are determined by noncompartmental methods using WinNonlin version 3.0 (Pharsight Corp).
The following information is based on a graph of the semi-log of the plasma concentration in ng/ml versus collection time in hours. • “Cmax” represents the maximum plasma concentration. • “t1/2” represents the half-life of the compound. • “AUC0-∞” represents the calculated area under the curve. • “AUC % Extrap(obs.)” represents the extrapolated area under the curve. • “Cls” is the clearance rate.

[4] = 24 h, BLQ = below assay quantification limit (approx. 1 ng/ml)
[5] = Cassette #2, single 18 mg/kg iv cassette dose (3 mg/kg/compound), 8 h
[6] = mouse plasma, iv Cassette #2, 3 mg/kg/compound (18 mg/kg total dose)
[7] = mouse plasma, iv Cassette #3, 3 mg/kg/compound (15 mg/kg total dose)
[8] = mouse plasma, iv Cassette #4, 3 mg/kg/compound (15 mg/kg total dose)
[9] = Cassette #2, single 18 mg/kg iv cassette dose (3 mg/kg/compound), 24 h

**Q.** Which “Mean Red Blood Cell to Plasma Ratio” value [1] does the source give for COC(=O)c1ccccc1S(=O)(=O)N1CCC(Nc2nc(N[C@H]3CC[C@H](N)CC3)nc3c2ncn3C2CCCC2)CC1.Cl.Cl [Compound 111, trans-2-{4-[2-(4-Amino-cyclohexylamino)-9-cyclopentyl-9H-purin-6-ylamino]-piperidine-1-sulfonyl}-benzoic acid methyl ester dihydrochloride] here?
**A.** Its value is 2.2.

**Q.** And the “Mean Red Blood Cell to Plasma Ratio” value [2]?
**A.** Its value is 1.2.

**Q.** And the “Mean concentration in plasma” value [3, 4]?
**A.** The value was “BLQ”.

**Q.** What does the source list for Cl.Cl.N[C@H]1CC[C@H](Nc2nc(NC3CCN(C(=O)Oc4ccccc4)CC3)c3ncn(C4CCCC4)c3n2)CC1 [Compound 85, trans-4-[2-(4-Amino-cyclohexylamino)-9-cyclopentyl-9H-purin-6-ylamino]-piperidine-1-carboxylic acid phenyl ester dihydrochloride]?
**A.** Mean Red Blood Cell to Plasma Ratio [1]: 6.1; Mean Red Blood Cell to Plasma Ratio [2]: 7.1; Mean concentration in plasma ([3]; 0.083 h): 843.3 ± 124.5 ng/mL; Mean concentration in plasma ([3]; 0.25 h): 341.6 ± 45.1 ng/mL; Mean concentration in plasma ([3]; 0.5 h): 163.8 ± 15.7 ng/mL; Mean concentration in plasma ([3]; 1 h): 89.0 ± 21.5 ng/mL; Mean concentration in plasma ([3]; 3 h): 14.3 ± 7.1 ng/mL; Mean concentration in plasma ([3]; 6 h): 5.2 ± 1.9 ng/mL; Mean concentration in plasma ([3]; 8 h): 3.2 ng/mL; Mean concentration in plasma [3, 4]: BLQ

**Q.** With COC(=O)c1ccc(OC(=O)N2CCC(Nc3nc(N[C@H]4CC[C@H](N)CC4)nc4c3ncn4C3CCCC3)CC2)cc1.Cl.Cl [Compound 83, trans-4-[2-(4-Amino-cyclohexylamino)-9-cyclopentyl-9H-purin-6-ylamino]-piperidine-1-carboxylic acid 4-methoxycarbonyl-phenyl ester dihydrochloride] as the compound, how does the “Mean Red Blood Cell to Plasma Ratio” value [2] read?
**A.** Its value is 4.1.

**Q.** What about the “Mean concentration in plasma” value ([3]; 0.083 h) of the same compound?
**A.** Its value is 1515.7 ± 611.8 ng/mL.

**Q.** And the “Mean concentration in plasma” value ([3]; 0.25 h)?
**A.** The value was 217.9 ± 92.8 ng/mL.

**Q.** And the “Mean concentration in plasma” value ([3]; 0.5 h)?
**A.** Its value is 61.3 ± 32.9 ng/mL.

**Q.** And the “Mean concentration in plasma” value ([3]; 1 h)?
**A.** Its value is 14.1^a ng/ml.

**Q.** What about the “Mean concentration in plasma” value ([3]; 3 h) of the same compound?
**A.** Its value is 4.1^a ng/ml.

**Q.** And the “Mean concentration in plasma” value ([3]; 6 h)?
**A.** The value was 1.6^a ng/ml.

**Q.** And the “Mean concentration in plasma” value ([3]; 8 h)?
**A.** The value was 6.3^a ng/ml.

**Q.** And the “Mean concentration in plasma” value [3, 4]?
**A.** The value was “BLQ”.

**Q.** Which concentration at 0.083 h ([3]; Cassette #2, single 18 mg/kg iv cassette dose (3 mg/kg/compound), 0.083 h) does the source give for NC1CCC(Nc2nc(NCCCc3ccccc3)c3ncn(C4CCCC4)c3n2)CC1 (stereo not drawn) [MDL 107167, reference compound] here?
**A.** Its concentration at 0.083 h is 472 ng/mL.

**Q.** What about the concentration at 0.25 h ([3]; Cassette #2, single 18 mg/kg iv cassette dose (3 mg/kg/compound), 0.25 h) of the same compound?
**A.** Its concentration at 0.25 h is 317 ng/mL.

**Q.** What about the concentration at 0.5 h ([3]; Cassette #2, single 18 mg/kg iv cassette dose (3 mg/kg/compound), 0.5 h) of the same compound?
**A.** Its concentration at 0.5 h is 266 ng/mL.

**Q.** And the concentration at 1 h ([3]; Cassette #2, single 18 mg/kg iv cassette dose (3 mg/kg/compound), 1 h)?
**A.** The concentration at 1 h was 133 ng/mL.

**Q.** What about the concentration at 3 h ([3]; Cassette #2, single 18 mg/kg iv cassette dose (3 mg/kg/compound), 3 h) of the same compound?
**A.** Its concentration at 3 h is 16.1 ± 1.4 ng/mL.

**Q.** What about the concentration at 6 h ([3]; Cassette #2, single 18 mg/kg iv cassette dose (3 mg/kg/compound), 6 h) of the same compound?
**A.** Its concentration at 6 h is 2.8 ± 0.4 ng/mL.

**Q.** And the concentration at 8 h [3, 5]?
**A.** Its concentration at 8 h is 1.6 ± 0.2 ng/mL.

**Q.** What about the concentration at 0.083 h ([3]; Cassette #3, single 15 mg/kg iv cassette dose (3 mg/kg/compound), 0.083 h) of the same compound?
**A.** The concentration at 0.083 h was 520 ± 69.3 ng/mL.

**Q.** And the concentration at 0.25 h ([3]; Cassette #3, single 15 mg/kg iv cassette dose (3 mg/kg/compound), 0.25 h)?
**A.** Its concentration at 0.25 h is 324 ± 32.3 ng/mL.

**Q.** And the concentration at 0.5 h ([3]; Cassette #3, single 15 mg/kg iv cassette dose (3 mg/kg/compound), 0.5 h)?
**A.** The concentration at 0.5 h was 209 ± 24.1 ng/mL.

**Q.** And the concentration at 1 h ([3]; Cassette #3, single 15 mg/kg iv cassette dose (3 mg/kg/compound), 1 h)?
**A.** The concentration at 1 h was 108 ± 29.3 ng/mL.

**Q.** What about the concentration at 3 h ([3]; Cassette #3, single 15 mg/kg iv cassette dose (3 mg/kg/compound), 3 h) of the same compound?
**A.** Its concentration at 3 h is 23.5 ± 6.4 ng/mL.

**Q.** What about the concentration at 6 h ([3]; Cassette #3, single 15 mg/kg iv cassette dose (3 mg/kg/compound), 6 h) of the same compound?
**A.** The concentration at 6 h was 5 ± 0.5 ng/mL.

**Q.** And the concentration at 8 h ([3]; Cassette #3, single 15 mg/kg iv cassette dose (3 mg/kg/compound), 8 h)?
**A.** The concentration at 8 h was 2.4 ± 1.7 ng/mL.

**Q.** And the concentration at 0.083 h ([3]; Cassette #4, single 15 mg/kg iv cassette dose (3 mg/kg/compound), 0.083 h)?
**A.** The concentration at 0.083 h was 567 ± 43.5 ng/mL.

**Q.** And the concentration at 0.25 h ([3]; Cassette #4, single 15 mg/kg iv cassette dose (3 mg/kg/compound), 0.25 h)?
**A.** The concentration at 0.25 h was 491 ± 32.3 ng/mL.

**Q.** And the concentration at 0.5 h ([3]; Cassette #4, single 15 mg/kg iv cassette dose (3 mg/kg/compound), 0.5 h)?
**A.** Its concentration at 0.5 h is 325 ± 13.6 ng/mL.

**Q.** What about the concentration at 1 h ([3]; Cassette #4, single 15 mg/kg iv cassette dose (3 mg/kg/compound), 1 h) of the same compound?
**A.** Its concentration at 1 h is 145 ± 9.5 ng/mL.

**Q.** And the concentration at 3 h ([3]; Cassette #4, single 15 mg/kg iv cassette dose (3 mg/kg/compound), 3 h)?
**A.** Its concentration at 3 h is 35.3 ± 8.3 ng/mL.

**Q.** And the concentration at 6 h ([3]; Cassette #4, single 15 mg/kg iv cassette dose (3 mg/kg/compound), 6 h)?
**A.** The concentration at 6 h was 10.1 ± 3 ng/mL.

**Q.** And the concentration at 8 h ([3]; Cassette #4, single 15 mg/kg iv cassette dose (3 mg/kg/compound), 8 h)?
**A.** Its concentration at 8 h is 3.7 ± 0.7 ng/mL.

**Q.** And the AUC(0-inf) [3, 6]?
**A.** Its AUC(0-inf) is 467 ng·h/mL.

**Q.** And the AUC(0-inf) [3, 7]?
**A.** The AUC(0-inf) was 452 ng·h/mL.

**Q.** What about the AUC(0-inf) [3, 8] of the same compound?
**A.** The AUC(0-inf) was 627 ng·h/mL.

**Q.** What about the Cmax [3, 6] of the same compound?
**A.** Its Cmax is 472 ng/mL.

**Q.** What about the Cmax [3, 7] of the same compound?
**A.** Its Cmax is 520 ng/mL.

**Q.** What about the Cmax [3, 8] of the same compound?
**A.** Its Cmax is 567 ng/mL.

**Q.** What about the half-life [3, 6] of the same compound?
**A.** The half-life was 1.5 h.

**Q.** What about the half-life [3, 7] of the same compound?
**A.** Its half-life is 1.5 h.

**Q.** And the half-life [3, 8]?
**A.** Its half-life is 1.5 h.

**Q.** What about the “Mean Conc. in plasma” value [3, 9] of the same compound?
**A.** Its value is “BLQ”.

**Q.** And the “Mean Conc. in plasma” value ([3]; Cassette #3, single 15 mg/kg iv cassette dose (3 mg/kg/compound), 24 h)?
**A.** The value was “BLQ”.

**Q.** What about the “Mean Conc. in plasma” value ([3]; Cassette #4, single 15 mg/kg iv cassette dose (3 mg/kg/compound), 24 h) of the same compound?
**A.** Its value is “BLQ”.

**Q.** What about the “Mean concentration in plasma” value [3, 4] of the same compound?
**A.** Its value is “BLQ”.

**Q.** What about the “AUC0-∞” value ([3]; mouse plasma, iv Cassette #1, 3 mg/kg/compound (18 mg/kg total dose)) of the same compound?
**A.** Its value is 532 ng·h/mL.

**Q.** For CCOC(=O)c1ccc(NC(=O)N2CCC(Nc3nc(N[C@H]4CC[C@H](N)CC4)nc4c3ncn4C3CCCC3)CC2)cc1.Cl.Cl [Compound 154, trans-4-[(1-{4-[2-(4-Amino-cyclohexylamino)-9-cyclopentyl-9H-purin-6-ylamino]-piperidine-1-yl}-methanoyl)-amino]-benzoic acid ethyl ester dihydrochloride], which “Mean Red Blood Cell to Plasma Ratio” value [2] is on record?
**A.** Its value is 4.1.

**Q.** What about the “Mean Conc. in plasma” value [3, 5] of the same compound?
**A.** The value was “BLQ^a”.

**Q.** And the “Mean Conc. in plasma” value [3, 9]?
**A.** Its value is “BLQ^a”.
